According to patent US20070231373A1, “Transdermal Steriod for Formulation” (HUNTER-FLEMING LIMITED, priority 2004, published 2007):

Assay: Permeation behaviour through excised rat skin in Franz type cell
Assay type: in vitro ADME, Wistar rats
Conditions: conclusion from comparison with estradiol
Procedure: The materials used were as follows:
The excised abdominal rat skin was mounted on a Franz type cell (receiver volume: 3ml) with a water jacket connected to a water bath at 37° C. The patch was adhered to the stratum comeum side of the skin. The receiver compartment was filled with a mixture of PEG400 and water (1:3 by volume) and stirred with a star head magnetic bead driven by a constant speed motor. At predetermined times, 100 μl of sample was withdrawn from the receiver compartment, and the same volume of receptor solution was added to keep the volume constant. The drug concentration was analysed by HPLC.
For all adhesives, the amount of the drug which had permeated increased steadily with time.

With CC12CCC3C(C1CCC2=O)[C@@H](O)C[C@H]1C[C@@H](O)CCC31C (stereo partly drawn) [7β-OH EPIA, 7β-hydroxy-epiandrosterone] the “skin permeability (in words)” value was “potential skin permeability”.

In the case of C[C@]12CCC(=O)C=C1CC[C@@H]1[C@@H]2[C@@H](O)C[C@]2(C)C(=O)CC[C@@H]12 [HAD, 11β-hydroxy-4-androstene-3,17-dione], the “skin permeability (in words)” value is reported as “potential skin permeability”.
